Data published in patent US4684650A, “Antihypertensive fluorophenylindanyl imidazolidinoneethylpiperazines” (priority 1984, dated 1987).
Like-named read-outs stand apart in the source and are kept apart here.

Experiments:
[1] = test system: 1-5-HTP-induced head shakes; assay: 1-5-HTP-induced head shakes; assay type: in vivo; settings: rats, 1-5-HTP 75 mg/kg i.p. after citalopram; for ED50: Rattus norvegicus, sc, read-out: 1-5-HTP-antg. ED50; for 1-5-HTP-antg. ED50: s.c.
Method: The rats were pretreated subcutaneously with test compound or saline simultaneously with or 90 min before injection of citalopram (10 mg/kg s.c.).
Each group consisted of 4-12 rats.

[2] = test system: phenylephrine pressor responses; assay: Antagonism to phenylephrine pressor responses in pithed rats; assay type: in vivo; settings: for change in vivo at […] / ED50: Rattus norvegicus, iv; for change in vivo at […]: read-out: Effects on pressor response of Phenylephrine, % eff. of […], pithed rats, […], jugular vein, read-out: Effects on pressor response of Phenylephrine, % eff. of 0.31 mg/kg; for ED50: read-out: Effects on pressor response of Phenylephrine, ED50
Method: (§1) The rat is anaesthetized with ether, tracheotomized, artificial respired and pithed. The knitting-needle is introduced through the right orbita into the cranial cavity and passed through foramen magnum into the spinal canal as far as possible. The spinal cord is destroyed by turning the needle. After vagotomi both carotides are ligated and a catheter placed in the right one for pressure recording. The rat is adrenalectomized. […] The initial and post medication mean pressor effect is calculated, and the mean pressor effect is calculated as % of the initial value. Two to five preparations are employed for each dose level. The ED50 is determined.

[3] = test system: methylphenidate induced stereotypies; assay: Methylphenidate Antagonism; assay type: in vivo, mice; settings: for ED50: Mus musculus, ip, read-out: MePh antg. ED50, i.p., mice, 2 hours before methylphenidate 60 mg/kg s.c.; for MePh antg. ED50: i.p., mice, 2 hours before methylphenidate 60 mg/kg s.c.
Method: The experiments were made as described by Pedersen and Christensen (1972) Acta Pharmacol. et Toxicol. 31, 488-496.--Briefly, test compounds or saline were injected i.p. 2 hours before methylphenidate, 60 mg/kg s.c. 3 pairs of mice were used for each dose level. After methylphenidate injection the mice were placed in observation cages for one hour. The cages were placed on corrugated paper, the corrugation facing upwards.

[4] = test system: 5-HT pressor responses; assay: Antagonism to 5-HT pressor responses in pithed rats; assay type: in vivo; settings: for change in vivo at 0.02 mg/kg / ED50: Rattus norvegicus, iv
Method: as §1

[5] = test system: spontaneous hypertensive rats (SHR); assay: Antihypertensive effect in spontaneous hypertensive rats (SHR); assay type: in vivo; settings: for change in vivo at 5 mg/kg / ED10: Rattus norvegicus, ip; for change in vivo at 5 mg/kg: 1 h; for peripheral or central action: in words
Method: Antihypertensive effect in spontaneous hypertensive rats (SHR)
The femoral artery of male SHR is cannulated in anaestesia for blood pressure recordings. After a stabilization period of 11/2 h after discontinuation of the anaesthesia initial blood pressure curves are recorded and the systolic (SAP)/diastolic (DAP) pressure determined (-20, -10, 0, min. p.i.) Test substance is injected i.p. and the pressure curve recorded for one hour. The change in SAP/DAP is calculated in percent at mean initial values at different times (10, 20, 30, 40, 50 and 60 minutes after injection). At least two SHR are used per dose level. The maximum change is used for estimation of the drug effect.

[6] = target: T1, 5-HT2 receptors (Rattus norvegicus, UniProt P14842); assay: 3H-spiroperidol binding to 5-HT2 receptors; settings: rat whole cortex, 0.5 nM 3H-spiroperidol, 0.3 μM sulpiride; read-out: 3H-SPI binding 5-HT2 IC50
T1 construct: Rat whole cortex was homogenized by an Ultra Turrax homogenizer; from tissue; host or cells: rat whole cerebral cortex, crude washed membranes
T1 sequence (P14842 whole entry): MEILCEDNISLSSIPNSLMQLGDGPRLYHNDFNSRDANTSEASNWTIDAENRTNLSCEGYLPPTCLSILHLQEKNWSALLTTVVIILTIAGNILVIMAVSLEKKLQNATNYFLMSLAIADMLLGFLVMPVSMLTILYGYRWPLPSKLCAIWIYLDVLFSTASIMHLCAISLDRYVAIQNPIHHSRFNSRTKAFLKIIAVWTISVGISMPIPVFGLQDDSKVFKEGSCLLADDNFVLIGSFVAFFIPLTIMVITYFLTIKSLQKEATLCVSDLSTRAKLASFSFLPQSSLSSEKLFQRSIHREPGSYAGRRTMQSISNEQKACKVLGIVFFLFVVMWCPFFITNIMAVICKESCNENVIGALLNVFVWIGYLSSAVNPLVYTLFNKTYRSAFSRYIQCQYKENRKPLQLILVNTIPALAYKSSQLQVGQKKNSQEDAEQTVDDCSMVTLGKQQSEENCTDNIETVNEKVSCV
Method: ^3 H-spiroperidol binding to 5-HT2 receptors.
Rat whole cortex was homogenized by an Ultra Turrax homogenizer in 100 vol. of 50 mM Tris buffer pH 7.7. The homogenate was centrifuged at 20,000 g for 10 minutes at 4° C. The pellet was rehomogenized in another volume of buffer and centrifuged as mentioned above. The final pellet was rehomogenized in 50 mM Tris buffer pH 7.7 containing 120 mM NaCl, 5 mM KCl, 2 mM CaCl2 and 1 mM MgCl2 (ion mix) in a volume corresponding to 12.5 mg original tissue per ml.
Test drugs were dissolved in water; ^3 H-spiroperidol (NEN, 28-30 Ci/mmol) was diluted in 3 μM sulpiride, and 800 μl membrane suspension were added. Final concentration of ligand and sulpiride were 0.5 nM and 0.3 μM, respectively. The samples were incubated at 37° C. for 10 min. The samples were then filtered under vacuum through Whatman GF/B glass-fiber filters. The tubes were then rinsed with 5 ml incubation buffer, which was poured on the filters. The filters were finally washed twice with 5 ml buffer and placed in counting vials. After addition of 5 ml scintillation fluid (Lumagel) radioactivity was estimated by liquid scintillation counting. Non-specific binding was obtained by adding Mianserin (1 μM) to separate samples. Each drug was tested at least twice at 5 concentrations in triplicate. IC50-values were determined from log concentration-response curves.--The presence of sulpiride excluded binding to dopamine D-2 receptors.

[7] = pithed rats, 0.02 mg/kg, jugular vein, read-out: Effects on pressor response of 5-HT, % eff. of 0.02 mg/kg
[8] = 5 mg/kg ip, diastolic pressure (DAP), max change within one hour, read-out: Antihypertensive eff. SHR, max eff. in % of 5 mg/kg ip, DAP
[9] = 5 mg/kg ip, systolic pressure (SAP), max change within one hour, read-out: Antihypertensive eff. SHR, max eff. in % of 5 mg/kg ip, SAP
[10] = pithed rats, 0.02 mg/kg, jugular vein
[11] = 5 mg/kg ip, diastolic pressure (DAP), max change within one hour
[12] = 5 mg/kg ip, systolic pressure (SAP), max change within one hour
[13] = read-out: Effects on pressor response of 5-HT, % eff. of 0.02 mg/kg, pithed rats, 0.02 mg/kg, jugular vein
[14] = read-out: Antihypertensive eff. SHR, max eff. in % of 5 mg/kg ip, DAP, 5 mg/kg ip, diastolic pressure (DAP), max change within one hour
[15] = read-out: Antihypertensive eff. SHR, max eff. in % of 5 mg/kg ip, SAP, 5 mg/kg ip, systolic pressure (SAP), max change within one hour

Row | Structure (SMILES) | ED50 [1] [µmol/kg] | change in vivo at […] [2] [%] | ED50 [3] [µmol/kg] | change in vivo at 0.02 mg/kg [4, 7] [%] | change in vivo at 5 mg/kg [5, 8] [%] | change in vivo at 5 mg/kg [5, 9] [%] | Antihypertensive eff. SHR, max eff. in % of 5 mg/kg ip, DAP [5, 11] | Antihypertensive eff. SHR, max eff. in % of 5 mg/kg ip, SAP [5, 12] | change in vivo at 0.02 mg/kg [4, 13] [%] | change in vivo at 5 mg/kg [5, 14] [%] | change in vivo at 5 mg/kg [5, 15] [%] | IC50 [6] [nM] | other results
1 | O=C1OCCN1CCN1CCN([C@@H]2C[C@@H](c3ccc(F)cc3)c3ccc(F)cc32)CC1 (relative stereo) [compound 8] | 1.3 | -19 | 18 | -40 | -26 | -20 |  |  |  |  |  |  | ED50 ([2]; pithed rats, jugular vein): 4.35 µmol/kg; Phenylephr. antg./5-HT antg. (ratio) ([2]; pithed rats, ratio of phenylephrine ED50 to 5-HT ED50): 52; ED50 ([4]; pithed rats, jugular vein, read-out: Effects on pressor response of 5-HT, ED50): 0.084 µmol/kg
2 | O=c1[nH]c2ccccc2c(=O)n1CCN1CCN([C@H]2C[C@H](c3ccc(F)cc3)c3ccccc32)CC1 (relative stereo) [compound 19] |  |  | > 70 |  |  |  | -27% | -22% |  |  |  |  | Effects on pressor response of Phenylephrine, % eff. of […] ([2]; pithed rats, jugular vein): -42%; Effects on pressor response of 5-HT, % eff. of 0.02 mg/kg [4, 10]: -35%
3 | CC(C)N1CCN(CCN2CCN([C@@H]3C[C@@H](c4ccc(F)cc4)c4ccc(F)cc43)CC2)C1=O (relative stereo) [compound 13] | 0.11 |  | > 73 |  |  |  |  |  | -79 | -5 | -5 | 5.2 | peripheral or central action [5]: marked central effects
4 | O=C1NCCN1CCN1CCN([C@@H]2C[C@@H](c3ccc(F)cc3)c3ccc(C(F)(F)F)cc32)CC1 (relative stereo) [compound 6] | 0.29 |  | 1.8 |  |  |  |  |  | -52 | -14 | -10 | 9.9 | 
5 | CCN1CCN(CCN2CCN([C@@H]3C[C@@H](c4ccc(F)cc4)c4ccc(F)cc43)CC2)C1=O (relative stereo) [compound 12] | 0.092 |  | > 75 |  |  |  |  |  | -94 | 4 | 4 | 4.9 | peripheral or central action [5]: marked central effects
6 | O=C1OCCN1CCCN1CCN([C@@H]2C[C@@H](c3ccc(F)cc3)c3ccc(F)cc32)CC1 (relative stereo) [compound 15] | 0.31 | -7 | 39 | -31 | -18 | -12 |  |  |  |  |  |  | 
7 | O=C1NCCN1CCN1CCN([C@@H]2C[C@@H](c3ccc(F)cc3)c3ccccc32)CC1 (single isomer, unassigned) [-1] |  |  |  |  |  |  | -11% | -3% |  |  |  | 130 | 1-5-HTP-antg. ED50 [1]: 8.9 µmol/kg; MePh antg. ED50 [3]: > 97 µmol/kg; Effects on pressor response of 5-HT, % eff. of 0.02 mg/kg [4, 10]: -11%
8 | O=C1NCCN1CCN1CCN([C@@H]2C[C@@H](c3ccc(F)cc3)c3ccc(F)cc32)CC1 (single isomer, unassigned) [-2] |  |  |  |  |  |  | +4% | +6% | 2 |  |  | 320 | 1-5-HTP-antg. ED50 [1]: 20 µmol/kg; MePh antg. ED50 [3]: > 61 µmol/kg; Effects on pressor response of 5-HT, ED50 ([4]; pithed rats, jugular vein): 1.43 µmol/kg
9 | Fc1ccc([C@@H]2C[C@@H](N3CCN(CCN4CCCNC4=S)CC3)c3cc(F)ccc32)cc1 (relative stereo) [compound 26] | 0.11 |  |  |  |  |  |  |  | -67 | -19 | -13 | 7.7 | 
10 | O=C1NCCN1CCN1CCN([C@@H]2C[C@@H](c3ccc(F)cc3)c3ccc(Cl)cc32)CC1 (single isomer, unassigned) [-20] | < 8.4 |  |  |  |  |  | -16% | -7% |  |  |  |  | Effects on pressor response of Phenylephrine, % eff. of […] ([2]; pithed rats, jugular vein): +21%; MePh antg. ED50 [3]: > 67 µmol/kg; Effects on pressor response of 5-HT, % eff. of 0.02 mg/kg [4, 10]: -11%
11 | O=C1OCCN1CCN1CCN([C@@H]2C[C@@H](c3ccc(F)cc3)c3ccccc32)CC1 (relative stereo) [compound 7] | 2.7 | -18 | > 83 | -4 | -19 | -15 |  |  |  |  |  |  | 
12 | CC(C)c1ccc2c(c1)[C@H](N1CCN(CCN3CCNC3=O)CC1)C[C@H]2c1ccc(F)cc1 (relative stereo) [compound 5] | 1.7 | -33 | 24 | -6 | -10 | -9 |  |  |  |  |  |  | 
13 | O=C(c1ccc(F)cc1)C1CCN(CCn2c(=O)[nH]c3ccccc3c2=O)CC1 [Ketanserin, reference compound] | 0.58 |  | 101 |  |  |  |  |  | -46 | -24 | -32 |  | ED50 [2]: 3.6 µmol/kg; ED50 ([4]; read-out: Effects on pressor response of 5-HT, ED50, pithed rats, jugular vein): 0.033 µmol/kg; ED10 ([5]; read-out: Antihypertensive eff. SHR, ED10 DAP): 1.2 µmol/kg; ED10 ([5]; read-out: Antihypertensive eff. SHR, ED10 SAP): 1.6 µmol/kg
